In US20200157151A1, “PEPTIDE COMPOUNDS, CONJUGATE COMPOUNDS AND USES THEREOF FOR TREATING INFLAMMATORY DISEASES” (TRANSFERT PLUS, S.E.C., priority 2017, published 2020):
Entries after “also recorded” stand apart in the source; their conditions may differ.

Key:
[1] = tested on: human HT-29 colorectal cancer cells; experiment: Time-course uptake by flow cytometry (cell-associated fluorescence); assay type: cell-based; conditions: 5 μM, 37° C., HT-29 cells, FIG. 4B
Method: FIG. 4 is a series of charts illustrating higher and sustained uptake of KBC-201 (FIG. 4A). At the same concentration (5 μM), KBC-201 generates about half the fluorescence compared to free curcumin (Ex.: 488 nm, Em.: 530 nm) (FIG. 4B). Time-course uptake of KBC-201 (full line) and free curcumin (dotted line) in human HT-29 colorectal cancer cells. HT-29 cells were incubated at 37° C. with 5 μM of KBC-201 or curcumin at various times, trypsinized, washed, and cell-associated fluorescence uptake was quantified using a BD Accuri™ C6 flow cytometer.
(§1) The uptake of Curcumin conjugate or free Curcumin was measured as a function of time in human HT-29 colon cancer cells (FIG. 4). […] Indeed, the Curcumin conjugate (KBC-201) is less fluorescent by about 2-3 folds when compared to free Curcumin. […] The uptake of both KBC-201 and free Curcumin was next measured in the presence of Sortilin ligands (FIG. 5B). […] Taken together, data of the pharmacological inhibition using Sortilin ligands and the silencing of Sortlin expression confirm that the Curcumin conjugate is internalized via a Sortilin-dependent mechanism.

Sortilin receptor = molecular target: T1, Sortilin receptor (Homo sapiens, UniProt Q99523); experiment: Sortilin-mediated uptake in HT-29 cells (siRNA silencing and competition with Sortilin ligands); assay type: cell-based; conditions: 5 μM
T1 construct: Sortilin-deficient (siSortilin) HT-29 colorectal cancer cells; endogenous in cells; host or cells: HT-29 human colorectal cancer cells
T1 sequence (Q99523 78-831): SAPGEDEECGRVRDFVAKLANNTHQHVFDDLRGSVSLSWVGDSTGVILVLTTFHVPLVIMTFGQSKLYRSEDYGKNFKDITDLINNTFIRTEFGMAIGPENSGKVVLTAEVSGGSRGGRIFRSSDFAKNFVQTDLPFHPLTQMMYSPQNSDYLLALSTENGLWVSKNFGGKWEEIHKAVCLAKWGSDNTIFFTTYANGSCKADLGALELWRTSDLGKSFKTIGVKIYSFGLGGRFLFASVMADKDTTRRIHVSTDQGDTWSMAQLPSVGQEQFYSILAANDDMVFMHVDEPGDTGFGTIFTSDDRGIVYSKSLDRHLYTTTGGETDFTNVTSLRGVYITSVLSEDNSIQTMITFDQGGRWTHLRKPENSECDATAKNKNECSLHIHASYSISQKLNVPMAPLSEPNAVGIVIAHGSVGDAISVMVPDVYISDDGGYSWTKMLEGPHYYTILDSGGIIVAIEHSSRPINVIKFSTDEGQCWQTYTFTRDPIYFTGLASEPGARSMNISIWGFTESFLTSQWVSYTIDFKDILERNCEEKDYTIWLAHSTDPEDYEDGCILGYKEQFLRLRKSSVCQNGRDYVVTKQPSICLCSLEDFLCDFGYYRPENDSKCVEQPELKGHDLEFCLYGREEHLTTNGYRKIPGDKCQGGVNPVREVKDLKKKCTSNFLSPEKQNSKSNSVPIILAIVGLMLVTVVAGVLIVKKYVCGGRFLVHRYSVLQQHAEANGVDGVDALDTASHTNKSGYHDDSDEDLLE
Method: FIG. 5 is a series of charts showing Sortilin-mediated uptake of KBC-201 in human colorectal cancer cells, FIG. 5A) Uptake of 5 μM of KBC-201 or free curcumin were performed at 37° C. in control (siScrambled) or Sortilin-deficient (siSortilin) HT-29 colorectal cancer cells. After a 2 h incubation, cells were trypsinized to remove non-internalized products, washed 3-times with ice-cold PBS and cell-associated fluorescence was quantified using a BD Accuri™ C6 flow cytometer. […] Cell-associated fluorescence uptake was quantified using a BD Accuri™ C6 flow cytometer.
as §1

[2] = tested on: TNF-α-induced COX-2 expression in human HT-29 colon cancer cells; conditions: 2 h pre-treatment, 10 ng/mL TNF-α 24 h, HT-29, FIG. 6; compared to free Curcumin
Method: (§2) Cells were pre-treated for 2 h with indicated compounds in serum-free medium before the addition of 10 ng/mL TNF-α for 24 h. Cells were lysed and the levels protein expression of COX-2 were monitored by immunoblotting. […] For each sample, the COX-2 level was corrected for GAPDH (a loading control) and normalized to those seen in TNF-α control (value=100%).
as §2, with “the” for “the levels”, “expression levels” for “expression”

[3] = tested on: TNF-α-induced IκB phosphorylation in human HT-29 colon cancer cells; experiment: Inhibition of TNF-α-induced IκB phosphorylation in HT-29 cells; assay type: cell-based; conditions: 24 h pre-treatment, 100 ng/mL TNF-α 5 min, HT-29, FIGS. 8 and 17; compared to Curcumin
Source text: FIG. 8A) Immunodetection of IκB phosphorylation by TNF-α is shown.
One of the inflammatory pathways induced by TNF-α leads to the phosphorylation of IkB (FIG. 1), a key protein in inflammation. As expected, the addition of TNF-α to human HT-29 colon cancer cells triggered the phosphorylation of IkB (pIkB) (FIG. 8).
One of the inflammatory pathways induced by TNF-α leads to the phosphorylation IkB (see FIG. 1), a key protein in inflammation. It was observed that the addition of TNF-α to human HT-29 colon cancer cells triggered the phosphorylation of IkB (pIkB) (FIGS. 17A and 17B).

[4] = tested on: TNF-α-induced NFκB phosphorylation in human MDA-MB231 breast cancer cells; experiment: Inhibition of TNF-α-induced NFκB phosphorylation in MDA-MB231 cells; assay type: cell-based; conditions: 24 h pre-treatment, 100 ng/mL TNF-α 5 min, MDA-MB231, FIGS. 9 and 18
Source text: FIG. 9A) Immunodetection of phosphorylated NFκB by TNF-α is shown.
(§3) FIGS. 9 and 10 are other examples of the Curcumin conjugate (KBC-201)'s effect on the TNF-α-induced signaling pathways in two other cancer cell models.
Results presented in FIGS. 18A and 18B show now that the peptide alone (KBP-201) can reduce the TNF-α-induced NFκB phosphorylation by about 30%.
In FIG. 18A, immunodetection of NFκB phosphorylation by TNF-α is shown.

[5] = tested on: TNF-α-induced IκB phosphorylation in human SKOV3 ovarian cancer cells; experiment: Inhibition of TNF-α-induced IκB phosphorylation in SKOV3 cells; assay type: cell-based; conditions: 24 h pre-treatment, 100 ng/mL TNF-α 5 min, SKOV3, FIG. 10
Source text: FIG. 10A) Immunodetection of IκB phosphorylation by TNF-α is shown.
as §3

[6] = Stability at room temperature followed by absorbance over time; conditions: FIG. 11
Source text: FIG. 11 is a graph showing absorbance of Curcumin conjugates and free Curcumin.

Substance: Acetyl-YK(curcumin)SLRRK(curcumin)APRWDAPLRDPALRQLL (YKSLRRKAPRWDAPLRDPALRQLL) [KBC-201]
- Uptake over time (cell-associated fluorescence) [1]: higher and sustained uptake over time
- Uptake when Sortilin expression is reduced by siRNA (Sortilin receptor; 2 h, 37° C., siSortilin vs siScrambled HT-29 cells, FIG. 5A): strongly inhibited; also recorded: reduces KBC-201 uptake
- Uptake in the presence of Sortilin ligands (Sortilin receptor; excess free peptide (50 μM), neurotensin (10 μM) or progranulin (1 nM), HT-29 cells, FIG. 5B): inhibited the uptake; also recorded: inhibit the uptake of KBC-201
- Inhibition of TNFα-induced COX-2 expression [2]: stronger inhibition
- Inhibition of TNF-α-induced IkB phosphorylation [3]: stronger inhibition
- Antagonism of TNF-α-induced phosphorylation of pro-inflammatory proteins (NFκB) [4]: more potent than free Curcumin
- Antagonism of TNF-α-induced phosphorylation of pro-inflammatory proteins (IκB) [5]: more potent than free Curcumin
- Stability (absorbance over time) [6]: more stable
